Laboratory results taken from publication PMC7893915, “Assessing cross-resistance within the pyrethroids in terms of their interactions with key cytochrome P450 enzymes and resistance in vector populations” (Parasites & Vectors, 2021).
“Also recorded” adds a separate entry of the source. Like-named read-outs stand apart in the source and are kept apart here.

Columns and labels:
CYP6M2 [1] = details: Incubation time 2h; mean ± SD; ref [38], [41]; cited from earlier work
CYP6P9a [2] = details: Incubation time 2h; mean ± SD; ref [38], [41]; cited from earlier work
CYP6P9a [3] = details: read-out: IC50 CYP6P9a, inhibition of diethoxyfluorescein metabolism, cited from earlier work
CYP9J5 = details: read-out: IC50 CYP9J5, inhibition of diethoxyfluorescein metabolism, cited from earlier work
CYP6P3 = details: Incubation time 2h; mean ± SD; ref [38], [41]; cited from earlier work
[4] = system: CYP6M2, CYP6P3 and CYP6P9a; assay: Pyrethroid metabolism (insecticide depletion), across CYP6M2, CYP6P3 and CYP6P9a; format: in vitro ADME, Anopheles gambiae and An. funestus; details: for vulnerability for metabolic attack by the three enzymes, rank in words: CYP6P3, CYP6M2 and CYP6P9a, among the six pyrethroids
Description: In this study, the half maximal inhibitory concentration (IC50), which provides a value for inhibition of each P450 by each pyrethroid (also referred to as ‘binding affinity’), and the percentage depletion, which gives a value for metabolism of each pyrethroid by each P450 (also referred to as vulnerability to metabolic attack), were both included as parameters to establish a P450s structural activity relationship model. This model was used to understand both the chemistry of the pyrethroids and the interaction with mosquito P450s that function as monooxygenases in metabolic resistance, to predict cross-resistance liabilities in vivo. […] A low percentage depletion indicates low metabolism of the pyrethroid, which means that it may be less vulnerable to resistance mediated by P450s.
The values for percentage depletion (metabolism) of each pyrethroid by three of the enzymes CYP6M2, CYP6P3 and CYP6P9a, which were expressed in a single plasmid construct, were also extracted from the same sources and used for the comparative analysis.

CYP6M2 [5] = details: read-out: IC50 CYP6M2, inhibition of diethoxyfluorescein metabolism, cited from earlier work
Ae. aegypti = assay: WHO adult susceptibility test on field samples, Ae. aegypti; format: in vivo, Aedes aegypti; details: standard diagnostic doses
Description: The analyses conducted using data from An. gambiae (s.l.) samples were repeated using data from the An. funestus subgroup, An. arabiensis, An. coluzzii, An. funestus and An. gambiae samples (Additional file 2). The same approach was also used for susceptibility test data from Aedes albopictus and Ae. aegypti to investigate whether the same relationships could be detected in these vectors of arboviruses, as detailed in Additional file 3.
Additional File 3: Cross-resistance to pyrethroids within wild populations of Aedes vectors […]
If structural diversity within the pyrethroids is also associated with divergence in resistance within the Aedes vectors of arboviruses, this would lend weight to the findings for malaria vectors presented in the main manusc ript. Like the Anopheles vectors, target-site mutations and metabolic resistance are thought to be the main resistance mechanisms in Aedes mosquitoes. At least ten mutations in the Aedes aegypti Vgsc gene have been identified and the most widespread mutation, […]
mutations and is also associated with DDT resistance. More recently, the V1016G mutation has been found in Ae. albopictus in Viet Nam and Italy, and both this allele and the F1534C and F1534S […]
expression of cytochrome P450s has also been implicated in pyrethroid resistance within Aedes mosquitoes and there is evidence that metabolic resistance can confer cross -resistance to multiple pyrethroids. For example, over-expression of CYP9J28 is associated with metabolic resistance to […]
target site- and P450-mediated resistance in Ae. aegypti strains found variation in resistance to seven pyrethroids and hypothesised that some patterns of resistance could be linked to structural differences, but also noted that general conclusions are challenging to make without a greater number of compounds with a single modification to compare. No studies of structure activity relationships using a wide range of pyrethroids and P450s from Aedes mosquitoes have been conducted to-date, but data on resistance in wild populations are available. A wider range of pyrethroids are more typically tested by studies of resistance in Aedes vectors, compared to Anopheles vectors, although these studies are also more varied in terms of diagnostic dose, bioass ay method and life cycle stage, making comparisons across studies difficult. Here we selected studies that used a common experimental design and investigated correlations in resistance to pairs of pyrethroids mirroring part of the work on Anopheles vectors presented in the main manuscript.
We identified all instances within a public insecticide resistance database where an Aedes field sample had been subdivided among tests for different pyrethroids. We then identified the most commonly used bioassay type across the new pyrethroid dataset, which was the WHO adult susceptibility test as described for malaria vectors, and the most commonly used diagnostic dose for […]
each compound (Table S2). […]
removed. Paired results were then extracted, and the mean values for the Pearson’s correlation coefficient were calculated for each pyrethroid pair using 1,000 bootstaps in SPSS Statistics v25.
Table S5. Diagnostic doses and data volumes for each pyrethroid.
Pyrethroid Most common dose Number of data points
The number of data points available for each pyrethroid from an Ae. aegypti sample that was used to test at least one other pyrethroid, using standard WHO susceptibility tests and standard diagnostic doses, is given.

Gambiae Complex = details: WHO Bioassay 1998, cited from earlier work
Anopheles funestus = details: F1, house resting indoors, WHO Bioassay 1998, cited from earlier work
[6] = footnote b, ref Yunta et al. 2019[10]
[7] = mean ± SD across CYP6M2, CYP6P3, CYP6P9a
[8] = Pair 3 λ-cyhalothrin vs etofenprox, N 21 paired Ae. aegypti samples
[9] = Pair 8 permethrin vs λ-cyhalothrin, N 56 paired Ae. aegypti samples
[10] = Pair 9 deltamethrin vs λ-cyhalothrin, N 67 paired Ae. aegypti samples
[11] = ID 100127, F1, house resting indoors, 4/2010, VK6, Burkina Faso, ref Kwiatkowska RM et al. Gene. 2013;519(1):98-106
[12] = ID 100156, F0, larval collection, 5/2009-4/2010, Chano, Ethiopia, ref Massebo F et al. Parasites Vectors. 2013;6
[13] = ID 200044, 4/2009-4/2010, Kalungama, Malawi, ref Wondji CS et al. Proc Natl Acad Sci U S A. 2012;109(47):19063-70
[14] = ID 200045, 4/2009-4/2010, Chinkole, Malawi, ref Wondji CS et al. Proc Natl Acad Sci U S A. 2012;109(47):19063-70
[15] = ID 200048, 3/2000-7/2002, Catembe, Mozambique, ref Casimiro S et al. J Med Entomol. 2006;43(2):267-75
[16] = Pair 1 deltamethrin vs etofenprox, N 29 paired Ae. aegypti samples
[17] = Pair 6 deltamethrin vs permethrin, N 136 paired Ae. aegypti samples
[18] = ID 100045, F0, larval collection, 7/2010-12/2010, Ahero Division, Kenya, ref Ochomo E et al. Med Vet Entomol. 2013;27(2):156-64
[19] = ID 100117, F1, house resting indoors, 4/2010, VK2, Burkina Faso, ref Kwiatkowska RM et al. Gene. 2013;519(1):98-106
[20] = ID 100160, F0, larval collection, 10/2008-5/2009, Nkolondom, Cameroon, ref Nwane P et al. Parasites Vectors. 2013;6
[21] = footnote a, ref Yunta et al. 2016[8]
[22] = ID 200117, 4/2009-11/2009, Tororo, Uganda, ref Morgan JC et al. PLoS One. 2010;5(7)
[23] = Pair 4 permethrin vs etofenprox, N 31 paired Ae. aegypti samples

SMILES	% Insecticide depletion CYP6M2 (CYP6M2 [1]) [%]	% Insecticide depletion CYP6P9a (CYP6P9a [2]) [%]	IC50 (CYP6P9a [3]; [6]) [µM]	IC50 (CYP9J5; [6]) [µM]	% Insecticide depletion CYP6P3 (CYP6P3) [%]	vulnerability for metabolic attack by the three enzymes, rank in words [4]	% Insecticide depletion Mean across P450s [4, 7] [%]	IC50 (CYP6M2 [5]; [6]) [µM]	Mean percent mortality (SE) (Ae. aegypti; [8])	Mean percent mortality (SE) (Ae. aegypti; [9])	Mean percent mortality (SE) (Ae. aegypti; [10])	mortality (Gambiae Complex; [11])	mortality (Gambiae Complex; [12])	mortality (Anopheles funestus; [13])	mortality (Anopheles funestus; [14])	mortality (Anopheles funestus; [15])	Mean percent mortality (SE) (Ae. aegypti; [16])	Mean percent mortality (SE) (Ae. aegypti; [17])	mortality (Gambiae Complex; [18])	mortality (Gambiae Complex; [19])	other results
Cc1c(COC(=O)[C@@H]2[C@H](/C=C(\Cl)C(F)(F)F)C2(C)C)cccc1-c1ccccc1 (racemic) [Bifenthrin, bifenthrin]	38.9 ± 1.6	53.4 ± 1.6	8.5	2.5	76.7 ± 0.3	lowest vulnerability	56.3	5.6	–	–	–	–	–	–	–	–	–	–	–	–	–
CC1(C)[C@H](C(=O)O[C@H](C#N)c2cccc(Oc3ccccc3)c2)[C@@H]1/C=C(\Cl)C(F)(F)F (racemic) [λ-Cyhalothrin, λ-cyhalothrin]	49.4 ± 0.5	67.1 ± 3.1	3.7	4.2	83.3 ± 15.4	–	66.6 ± 17.0	6.6	72.40 (4.52) percent	84.52 (3.40) percent	74.16 (3.55) percent	7.3	56	34.3	60	59.3	–	–	–	–	Mean percent mortality (SE) (Ae. aegypti; Pair 7 λ-cyhalothrin vs cyfluthrin, N 25 paired Ae. aegypti samples): 66.90 (5.01) percent
CC1(C)[C@H](C(=O)O[C@H](C#N)c2cccc(Oc3ccccc3)c2)[C@@H]1C=C(Br)Br [Deltamethrin, deltamethrin]	–	–	–	–	–	–	83.5 ± 24.2	–	–	–	85.64 (2.66) percent	18.8	47	51.2	68.5	55.2	90.68 (2.80) percent	88.10 (1.66) percent	92.31	37.2	Mean percent mortality (SE) (Ae. aegypti; Pair 10 deltamethrin vs cyfluthrin, N 72 paired Ae. aegypti samples): 88.43 (1.94) percent; mortality (Gambiae Complex; [20]): 95; IC50 (CYP6P9a [3]; [21]): 2.6 µM; IC50 (CYP9J5; [21]): 6.1 µM; IC50 (CYP6M2 [5]; [21]): 4.2 µM; mortality (Anopheles funestus; [22]): 39
CCOc1ccc(C(C)(C)COCc2cccc(Oc3ccccc3)c2)cc1 [Etofenprox, etofenprox]	68.8 ± 1.1	98.5 ± 0.2	8.1	8	99.8 ± 0.3	most vulnerable	89.0 ± 17.5	12	16.81 (4.43) percent	–	–	–	–	–	–	–	21.59 (4.75) percent	–	–	–	Mean percent mortality (SE) (Ae. aegypti; Pair 2 cyfluthrin vs etofenprox, N 22 paired Ae. aegypti samples): 21.14 (5.32) percent; Mean percent mortality (SE) (Ae. aegypti; [23]): 21.09 (4.89) percent; metabolism in words ([4]; by CYP6P3, CYP6M2 and CYP6P9a): strongly metabolised; also recorded: most depleted
CC1(C)C(C=C(Cl)Cl)C1C(=O)OCc1cccc(Oc2ccccc2)c1 (stereo not shown) [Permethrin, permethrin]	58.5 ± 2.2	87.8 ± 0.7	–	–	100.0 ± 0.0	most vulnerable	–	–	–	70.10 (3.99) percent	–	3	–	67.4	–	100	–	61.44 (2.40) percent	91.97	4.1	Mean percent mortality (SE) (Ae. aegypti; [23]): 63.39 (5.36) percent; Mean percent mortality (SE) (Ae. aegypti; Pair 5 permethrin vs cyfluthrin, N 79 paired Ae. aegypti samples): 59.01 (3.18) percent; mortality (Gambiae Complex; [20]): 95; IC50 (CYP6P9a [3]; [21]): 5.7 µM; IC50 (CYP9J5; [21]): 6.5 µM; % Insecticide depletion Mean across P450s ([4]; Anopheles gambiae and An. funestus): 82.1 ± 21.3%; IC50 (CYP6M2 [5]; [21]): 8.1 µM; mortality (Anopheles funestus; [22]): 69
